# Assay: Brain to plasma (B:P) ratio in rat
# Type: in vivo, Sprague Dawley Rats
# Details: male, Sprague Dawley, po, p.o. 3.0 mg/kg, 30% HPBC in water, timepoints averaged 0.5-4 h
# Experimental: Male Sprague Dawley Rats 300-350 g (Charles River, UK) were group housed, n=3, under a 12 h light/dark cycle with food and water available ad libitum. At 17:00 on the day prior to dosing all food was removed. On the day of dosing animals were weighed, tail marked and dosed via oral gavage with compound at 3 mg/kg in a volume of 5 mL/kg. Animals were culled at 30 min, 1 h and 4 h post dose via intra-peritoneal administration of pentobarbital. Post mortem blood was withdrawn via cardiac puncture, and briefly stored in K2 EDTA blood tubes on ice before being spun at 14,000 g for 4 min at 4° C. Plasma was withdrawn into a 96 well plate, placed on dry ice and stored at −80° C. Brains were quickly dissected and placed on dry ice before storage at −80° C. Bioanalysis of plasma and brain samples is performed as detailed below. Methods were prepared with guidance from industry standard documents.^i,ii […] Calibration lines are prepared in control male Sprague-Dawley Rat plasma at known concentrations in the range of 1-10000 ng/mL by spiking 2.5 μL of calibration spiking solution into 25 μL control plasma. Experimental samples are thawed to RT and 25 μL aliquots are extracted alongside the calibration lines using protein precipitation (agitation for at least 5 min at RT with 400 μL of MeCN containing 25 ng/mL tolbutamide as an internal standard). Protein precipitates are separated from the extracted test compound by centrifugation at 4000 rpm for 5 min, 4° C. […] Samples are analysed by UPLC-MS/MS on either an API6500 QTrap or Waters 30 TQS mass spectrometer using previously optimised analytical MRM (multiple reaction monitoring) methods, specific to the test compound. The concentration of test compound in isolated samples is determined following analysis of the samples against the two replicates of the calibration line, injected before and after the sample set with an appropriate regression and weighting used. Only samples within 20% of the expected test concentration are included in the calibration line and any samples that fall outside of the limits of the calibration line will be deemed to be less than or above the limit of quantification (LLoQ/ALoQ). […] Calibration lines are prepared in control male Sprague-Dawley Rat brain homogenate at known concentrations in the range of 3-30000 ng/g by spiking 2.5 μL of calibration spiking solution into 25 μL control homogenate. To prepare control and experimental brain homogenates, brains are thawed, weighed and a volume of diluent added (water) in the ratio of 2 mL per gram of brain. Homogenisation of brains is performed by bead-beater homogenisation using Precellys Evolution and CK14 7 mL small ceramic bead homogenisation tubes. Aliquots of 25 μL experimental sample are extracted alongside the calibration lines using protein precipitation (agitation for at least 5 min at RT with 400 μL of MeCN containing 25 ng/mL tolbutamide as an internal standard). Protein precipitates are separated from the extracted test compound by centrifugation at 4000 rpm for 5 min, 4° C. […] Samples are analysed by UPLC-MS/MS on either an API6500 QTrap or Waters TQS mass spectrometer using previously optimised analytical MRM (multiple reaction monitoring) methods, specific to the test compound. The concentration of test compound in isolated samples is determined following analysis of the samples against the two replicates of the calibration line, injected before and after the sample set with an appropriate regression and weighting used. Only samples within 20% of the expected test concentration are included in the calibration line and any samples that fall outside of the limits of the calibration line will be deemed to be less than or above the limit of quantification (LLoQ/ALoQ). Total brain to plasma (B:P) ratios were calculated by dividing the concentration in the brain by the concentration in plasma for each timepoint. The mean brain to plasma ratio is calculated by averaging these brain to plasma ratios across certain timepoints. […]
smiles,measurement,value
"O=C(Nc1ccc(OC(F)(F)Cl)cc1)c1ccc(=O)n(-c2ccccc2)c1 [Example 56, N-[4-[Chloro(difluoro)methoxy]phenyl]-6-oxo-1-phenyl-pyridine-3-carboxamide]",Kp,1.91

# Source: US20230002346A1, “NEW COMPOUNDS AND METHODS” (BenevolentAl Bio Limited, priority 2019, published 2023)
